{"source": "patent US9433573B2", "about": "“Microfabricated nanopore device for sustained release of therapeutic agent” (Delpor, Inc., priority 2001, dated 2016)", "key": {"[1]": {"set-up": "species or system rats", "details": "rat, in vivo, sc, 80 ug", "excerpt": "(§1) Lysozyme, an enzyme with a molecular weight intermediate between that of glucose and albumin (MW 12,000 Daltons) was used to measure diffusion kinetics through nanopore membranes both in vitro and in vivo. Radiolabeled (^125-I) lysozyme was obtained from ICN Biochemicals. Unlabeled lysozyme was obtained from Sigma Chemical Corp. Radiolabeled lysozyme was admixed with unlabeled lysozyme and loaded into implants as described above for albumin. In vitro release rates for three size membranes are plotted in FIG. 8. Lysozyme release rates are zero-order for membranes pore sizes of 13 nm and 49 nm.\nBlood levels of lysozyme in groups of three rats given either a single subcutaneous bolus of 80 μg or after implantation of a nanopore implant device designed to release lysozyme at a rate of 17 μg/day are shown in FIG. 9."}, "[2]": {"experiment": "In vitro release of 125I-lysozyme from nanopore membrane implants", "excerpt": "as §1"}}, "data": [{"substance": "lysozyme", "values": [{"measurement": "apparent half-life in blood stream", "setting": "[1]", "result": "less than several days"}, {"measurement": "lysozyme release rates (kinetics)", "setting": "[2]; membrane pore sizes of 13 nm and 49 nm, in vitro", "result": "zero-order"}, {"measurement": "flux of lysozyme versus initial concentration", "setting": "[2]; pore size of 13 nm or less, in vitro (data not shown)", "result": "independent of initial concentration"}]}]}
